We go through one compound from patent US20160185717A1, “COMPOUNDS WITH ANTIBACTERIAL ACTIVITY” (FUNDACIÓN MEDINA. CENTRO DE EXCELENCIA EN INVESTIGACIÓN DE …, priority 2013, published 2016).

Test [1] concerns Escherichia coli acrAB::Tn903 (CB-219). The experiment in a line: Micro RI (resistance) bioassay on E. coli CB-219. In kind it is cell-based. How it is done: (§1) The frequency of resistance to MDN-0057 and MDN-0058 was assessed on Escherichia coli acrAB::Tn903 (CB-219) and wild type (WT) Acinetobacter baumannii (ATCC BAA-747). For this purpose, the Minimum Inhibitory Concentration of MDN-0057 versus each strain was determined by broth microdilution as described in Clinical Laboratory Standards Institute publication M07-A9, Vol. 32, No. 2., “Methods for Dilution Antimicrobial Susceptibility Tests for Bacteria that Grow Aerobically; Approved Standard—Ninth Edition,” January 2012. Six-well plates containing Mueller Hinton II agar (5 mL per well) were prepared with MDN-0057 or MDN-0058 at concentrations 4-fold and 8-fold above the MIC. Cultures were grown to late log phase and spread on the agar. Plates were incubated at 37° C. and examined after one and two days of incubation.
(§2) Six to eight isolates from each species were obtained by re-streaking growth from the plates on antibiotic-free tryptic soy agar plates, and MICs of MDN-0057 versus the isolates were subsequently determined. MICs of the E. coli isolates were elevated at least 16-64-fold relative to their parent strain, CB-219.

The subject of test [2] is wild type (WT) Acinetobacter baumannii (ATCC BAA-747). Description: Resistance bioassay on A. baumannii. Format: cell-based. The procedure: as §1, §2
Test [3] concerns lipid synthesis in E. coli acrAB::Tn903. The experiment in a line: Macromolecular labeling assay, lipid synthesis. In kind it is cell-based, Escherichia coli. To be noted: at up to 8-fold the MIC, [3H] glycerol. The procedure: The macromolecular synthesis assay, in which the inhibition of the intracellular building blocks of macromolecules are measured, provides guidance for understanding the broad MOA of compounds
The inhibitory effect on synthesis of macromolecules in the lipid, cell wall, DNA, RNA and protein synthesis pathways was determined in growing cells of E. coli acrAB::Tn903. Cells were grown at 35° C. overnight on Trypticase Soy agar, and this culture was used to inoculate 15 ml of Mueller Hinton broth II (MHB). The culture was grown to early exponential growth phase (OD600=0.2 to 0.3) while incubating in a shaker at 35° C. and 200 rpm.
Cells in early exponential phase were exposed to MDN-0057, and their incorporation of radioactive precursors in each pathway was determined. Rifampicin, Ciprofloxacin, Tetracycline, Imipenem and Irgasan were included as positive controls for inhibition of RNA, DNA, protein, cell wall and lipid synthesis, respectively. (FIG. 1)
Lipid synthesis: Bacterial cells were grown to early exponential growth phase in MHB and 100 μL was added to 1.5 mL eppendorf tubes (in triplicate) containing various concentrations of MDN-0057 or control antibiotics as described above. Following a 5 min incubation at room temperature, [3H] glycerol was added at 0.5 μCi per reaction. […] Samples were then counted via liquid scintillation counting.

In another test the test system is K. pneumoniae 21. The experiment in a line: Broth microdilution MIC. Format: cell-based, Klebsiella pneumoniae. Conditions: K. pneumoniae 21, permeable strain. How it is done:
(§3) Antibacterial activity of compounds MDN-0057, MDN-0058, MDN-0059 and MDN-0060 was evaluated using the broth microdilution methodology. This method is used to determine minimum inhibitory concentrations (MICs) which are defined as the lowest concentration of an antimicrobial compound that will inhibit the visible growth of a microorganism after overnight incubation.
(§4) In the microbroth dilution assay, microorganisms were selected by streaking bacteria culture from a cryovial into Mueller Hinton II (MHII) agar plate(s) and incubate overnight at 37° C. Thereafter, 3 to 5 characteristic fresh colonies were selected and suspended in 25 mL of MHII broth media for 2 hours shaking at 220 rpm. The 2 hour broth cultures were adjusted to an optical density of 0.111 at 660 nm and then diluted to 1:100 in order to obtain assay inoculums.
(§5) The four compounds evaluated were serially diluted in 100% DMSO with a dilution factor of 2 to provide 10 compound concentrations starting at 8 mg/mL.
(§6) For the assays, 90 μL/well of the appropriated diluted inoculum were mixed with 1.6 μL/well of each compound concentration and 8.4 μL/well of MHII broth media, resulting in an additional dilution of these compounds to yield concentrations in the assay wells from 128 μg/mL to 0.25 μg/mL. After that, the assay plates were read in a Tecan Ultraevolution spectrophotometer at 612 nm for T0 (zero time). Then, the plates were statically incubated at 37° C. for 20 hours. After incubation, they were shaken in a DPC Micromix-5 and read again for Tf (final time). Percentage of growth inhibition was calculated using the following normalization:
(§7) % Inhibition=[1-[(TfSample-T0Sample)−(TfBlank-T0blank)/(TfGrowth-T0Growth)−(TfBlank-T0blank)]×100. • Where, • T0 Sample=the absorbance of the strain growth in the presence of sample measured at zero time (before incubation). • Tf Sample=the absorbance of the strain growth in the presence of sample measured at final time (after incubation) • T0 Growth=the absorbance of the strain growth in the absence of sample measured at zero time (before incubation). • Tf Growth=the absorbance of the strain growth in the absence of sample measured at final time (after incubation). • T0 Blank=the absorbance of the broth medium (blank) measured at zero time (before incubation). • Tf Blank=the absorbance of the broth medium (blank) measured at final time (after incubation).

The subject of a further test is K. pneumoniae 847. The experiment in a line: Broth microdilution MIC. Format: cell-based, Klebsiella pneumoniae. To be noted: K. pneumoniae 847, Clinical isolate. How it is done:
as §3, §4, §5, §6, §7

Where [4] appears, read: six to eight isolates re-streaked from the plates.

In brackets after ≈: the same amount, converted by molar mass.

For `[C-]#[N+]C(=C)C(Cc1ccc(OC)cc1)([N+]#[C-])C1CC(O)CCC1OC(=O)CO` (stereo not shown) [MDN-0057], the “Growth on agar containing compound (frequency of resistance)” value in test [1] (E. coli acrAB::Tn903, 4-fold and 8-fold above the broth MIC, after 48 hours of incubation) was “pinpoint colonies that were too numerous to count”; in test [2] (A. baumannii, 4-fold and 8-fold above the broth MIC, after 24 hours of incubation) it was “a lawn of colonies was apparent”. In addition, the MIC in test [1] (E. coli_219, Micro RI, Isolate #1_4X) was 0.25 µg/mL (≈ 0.65 µM); in test [1] (E. coli_219, Micro RI, Isolate #2_8X) it was 0.25 µg/mL (≈ 0.65 µM); in test [1] (E. coli_219, Micro RI, Isolate #3_4X), 0.25 µg/mL (≈ 0.65 µM); in test [1] (E. coli_219, Micro RI, Isolate #4_4X), 0.25 µg/mL (≈ 0.65 µM); in test [1] (E. coli_219, Micro RI, Isolate #5_8X) it was 0.25 µg/mL (≈ 0.65 µM); in test [1] (E. coli_219, Parent) it was 0.125 to 0.5 µg/mL. Besides, the MIC against K. pneumoniae 21 was 0.25 µg/mL (≈ 0.65 µM); against K. pneumoniae 847, 64 µg/mL (≈ 166 µM). In addition, the “Elevation of MICs of the E. coli isolates relative to parent strain CB-219” value in test [1] (setting [4]) is 16-64 fold. For the same compound, in test [2] (setting [4]), the “MICs of the A. baumannii isolates compared with parent strain A. baumannii BAA-747” value is “not significantly different”. In addition, the “Inhibition of lipid synthesis” value in test [3] is on record as “Little or no inhibition”.
